Assay [1] concerns T1, Aβ 25–35 pre-formed fibrils.
T1 construct: Aβ 25–35 peptide was purchased from GenScript USA Inc; purchased GenScript USA Inc
Kind of assay: Thioflavin T assay, Phase II: disaggregation of pre-formed mature fibrils. The following applies: pre-formed Aβ 25–35 fibrils with ACTPG 250 μg/ml or galantamine 50 μM. It counts as biochemical. How it is done: According to the method of Ramesh et al the anti-aggregation and disaggregation property of P. gymnospora was evaluated in two different phases. In phase I, the inhibition of aggregate formation was assessed by using oligomers. Consequently, in Phase II the disaggregation of the pre-formed fibrils were determined. Freshly prepared Aβ 25–35 (100 μM) monomer was incubated in Tris-HCl buffer pH 7.4 at 37°C for 20 h. However, after 20 h, an increase in fluorescence intensity was observed which represents the formation of oligomers. The acetone extract of P. gymnospora (ACTPG) (250 and 500 μg/ml) was added to the oligomers and subjected to incubation at 48 h for dose fixation. […] In phase I, the freshly prepared Aβ 25–35 (100 μM) was incubated with ACTPG (250 μg/ml), and the aggregation pattern was evaluated by ThT assay with the aliquots taken from the incubation mixture at 20 h and 48 h respectively. […] After that, ACTPG (250 μg/ml) was co-incubated with the pre-formed fibrils, and the disaggregation pattern was evaluated by taking the aliquots of incubation mixture at 96 h and 9 days using Thioflavin T assay using the standard Galantamine (50μM) as a positive control. […]
Thioflavin T-induced fluorescence changes were measured to quantify amyloid fibril formation by spectrofluorimeter (Microplate Analyzer) as described by. […]

The next assay has as its target T2, AChE from Electric eel (Electrophorus electricus, UniProt O42275).
T2 construct: AChE from Electric eel (Type-VI-S, EC 3.1.1.7, Sigma); purchased Sigma Type-VI-S
Kind of assay: AChE inhibitory assay (modified Ellman 96-well microplate). It counts as biochemical. Here is the method: (§1) ChE inhibitory activities were measured using a modified 96-well microplate assay developed by. […] After incubation, 125 μl of 3 mM DTNB was added and the total volume was made up to 300 μl with Tris- HCl buffer (pH 8.0/7.4). Enzyme activity was initiated by the addition of 50 μl of 15 mm ATCI/BTCI. […] AChE activity was expressed as U/mg of protein (1U = μmol of thiocholine iodide formed/min/mg protein). […] Percentage of inhibition of AChE/BuChE was determined by comparison of rates of reaction of samples relative to the blank (Tris-HCl buffer) using the formula, where SA is the specific activity.
(§2) % of inhibition = [(SA of control − SA of test sample) / SA of control]*100

The target in the next assay is T3, BuChE from horse serum (Equus caballus, UniProt P81908).
T3 construct: BuChE from horse serum (EC 3.1.1.8, MP Biomedicals); purchased MP Biomedicals; host or cells: horse serum
Kind of assay: biochemical. Here is the method:
as §1, §2

SMILES strings stand for the structures.

T3 sequence (P81908 whole entry): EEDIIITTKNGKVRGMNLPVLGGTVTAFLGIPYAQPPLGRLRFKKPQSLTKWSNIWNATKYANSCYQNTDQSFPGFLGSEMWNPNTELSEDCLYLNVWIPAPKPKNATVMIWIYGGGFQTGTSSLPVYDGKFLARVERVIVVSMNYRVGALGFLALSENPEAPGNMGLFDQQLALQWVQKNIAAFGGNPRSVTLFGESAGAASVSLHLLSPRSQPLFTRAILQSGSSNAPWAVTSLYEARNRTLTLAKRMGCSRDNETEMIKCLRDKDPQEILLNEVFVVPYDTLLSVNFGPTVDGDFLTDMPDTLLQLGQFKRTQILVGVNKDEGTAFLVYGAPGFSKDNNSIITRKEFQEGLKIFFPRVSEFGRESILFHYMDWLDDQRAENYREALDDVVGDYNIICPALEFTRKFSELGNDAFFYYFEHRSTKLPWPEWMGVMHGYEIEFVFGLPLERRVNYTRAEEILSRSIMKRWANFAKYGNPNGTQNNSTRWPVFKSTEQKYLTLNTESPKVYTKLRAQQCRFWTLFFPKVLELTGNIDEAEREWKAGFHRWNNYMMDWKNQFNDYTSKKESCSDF
T2 sequence (O42275 24-633): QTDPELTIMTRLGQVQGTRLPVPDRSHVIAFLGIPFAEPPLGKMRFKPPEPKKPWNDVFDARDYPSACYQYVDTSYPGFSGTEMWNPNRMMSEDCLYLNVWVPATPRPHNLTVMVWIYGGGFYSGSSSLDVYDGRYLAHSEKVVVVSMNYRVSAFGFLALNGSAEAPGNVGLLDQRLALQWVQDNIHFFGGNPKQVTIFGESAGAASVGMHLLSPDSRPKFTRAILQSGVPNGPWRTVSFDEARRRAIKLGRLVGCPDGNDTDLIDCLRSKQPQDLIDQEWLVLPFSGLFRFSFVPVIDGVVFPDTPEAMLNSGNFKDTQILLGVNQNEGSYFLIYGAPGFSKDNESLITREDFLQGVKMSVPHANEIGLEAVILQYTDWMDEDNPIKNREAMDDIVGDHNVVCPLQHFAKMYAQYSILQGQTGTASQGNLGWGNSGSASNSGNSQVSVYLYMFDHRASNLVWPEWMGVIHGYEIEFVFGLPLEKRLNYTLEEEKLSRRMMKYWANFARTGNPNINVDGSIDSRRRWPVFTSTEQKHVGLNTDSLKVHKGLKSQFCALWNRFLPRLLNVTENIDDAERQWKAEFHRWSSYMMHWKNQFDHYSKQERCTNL

As to `COc1ccc2c3c1O[C@H]1C[C@@H](O)C=C[C@@]31CCN(C)C2` [Galantamine], the “Thioflavin T fluorescence intensity” value is given as 3.62 ± 0.55 AU in assay [1] (96 h, Aβ alone 4.67 ± 0.28 AU) and 2.86 ± 0.94 AU in assay [1] (9 days, Aβ alone 6.06 ± 0.47 AU).
With `CC(C)=CCC[C@](C)(O)[C@@H]1CC=C(C)CC1` [alpha-bisabolol, Alpha-bisabolol], the IC50 against AChE from Electric eel and against BuChE from horse serum was less than 45 µM each time. Moreover, on AChE from Electric eel (read-out: maximum AChE inhibitory activity), the inhibition at 50 µg/mL is 87%. Also, the inhibition at up to 50 µg/mL at BuChE from horse serum (10–50 μg/ml tested, at 50 μg/ml, read-out: maximum BuChE inhibitory activity) worked out at 66%.

The values are drawn from paper PMC4633220, “Antiaggregation Potential of Padina gymnospora against the Toxic Alzheimer’s Beta-Amyloid Peptide 25–35 and Cholinesterase Inhibitory Property of Its Bioactive Compounds” (PLoS ONE, 2015).
